The values that follow come from patent US20110275703A1, “SUBSTITUTED SPIROKETAL DERIVATIVES AND USE THEREOF AS THERAPEUTIC DRUG FOR DIABETES” (CHUGAI SEIYAKU KABUSHIKI KAISHA, priority 2007, published 2011).

One assay has as its system db/db mice. Description: Study for glucose lowering effect in db/db mouse. The assay is classed as in vivo. The settings on record: Mus musculus, po, 0.3 mg/kg administration, 6 hours, read-out: reduction of blood glucose 6 hours after administration. The method, then:
Study for Glucose Lowering Effect in dB/dB Mouse
A study for glucose lowering effect was conducted using db/db mice (purchased from Clea Japan, Inc., male, 9 to 11 weeks old), type 2 diabetic model mice. On the day of the study, body weights and blood glucose levels were measured prior to the start of testing. Measurement of the blood glucose levels was performed using a simple blood glucose meter (manufactured by Bayer HealthCare, Dexter-Z II). The mice were allocated to some groups consisting of 5 mice each so that homogeneity of body weights or blood glucose levels among groups would be ensured. Blood collection was carried out by making an incision on the tip of the tail and taking the blood therefrom. On the day of the study, the test compounds were suspended in 0.5% carboxymethylcellulose solution (CMC solution), and the dosing solutions of which concentration was adjusted to either 0.3 mg/10 mL or 3 mg/10 mL were prepared. The dosing solutions were orally administered by gavage for mice in 10 mL/kg. To the control group, only a 0.5% CMC solution was orally administered in 10 mL/kg. Blood was collected prior to or sequentially after administration of test compounds by above method. The blood glucose levels were determined using a hexokinase method (AutoSera S GLU, manufactured by Daiichi Pure Chemicals Co., Ltd.). A percent reduction of blood glucose relative to control group at each time point after administration of test compounds was calculated by the following equation.
Percent reduction of blood glucose (%)={blood glucose level in the control group (mg/dL)-blood glucose level in the test compound group (mg/dL)}/blood glucose level in the control group (mg/dL)×100

In the next assay the target is T1, human SGLT2 (Homo sapiens, UniProt P31639).
T1 construct: expressed in transfected cells; host or cells: CHO-K1
T1 sequence (P31639 1-672): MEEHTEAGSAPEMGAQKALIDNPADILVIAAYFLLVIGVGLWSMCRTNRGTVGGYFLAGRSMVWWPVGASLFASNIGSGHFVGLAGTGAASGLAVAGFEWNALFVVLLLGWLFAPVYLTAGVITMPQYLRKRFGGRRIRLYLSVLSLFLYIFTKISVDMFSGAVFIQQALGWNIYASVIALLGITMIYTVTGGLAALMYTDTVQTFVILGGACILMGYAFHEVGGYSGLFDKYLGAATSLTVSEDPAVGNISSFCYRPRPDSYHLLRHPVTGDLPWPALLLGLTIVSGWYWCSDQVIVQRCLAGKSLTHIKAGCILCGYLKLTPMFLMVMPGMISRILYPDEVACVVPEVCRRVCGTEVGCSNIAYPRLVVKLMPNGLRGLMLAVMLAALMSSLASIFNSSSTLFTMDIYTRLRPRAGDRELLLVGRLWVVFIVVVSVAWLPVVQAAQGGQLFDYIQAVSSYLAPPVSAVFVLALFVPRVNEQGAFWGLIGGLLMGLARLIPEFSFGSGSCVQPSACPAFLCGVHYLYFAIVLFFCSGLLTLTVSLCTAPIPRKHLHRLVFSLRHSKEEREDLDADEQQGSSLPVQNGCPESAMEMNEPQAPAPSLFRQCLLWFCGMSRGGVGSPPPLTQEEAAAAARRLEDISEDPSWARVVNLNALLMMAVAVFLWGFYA
In words: Inhibitory activity against methyl-α-D-glucopyranoside uptake, CHO cells stably expressing human SGLT2. The format is cell-based. To be noted: inhibition of SGLT2, Table 2-1; read-out: IC50 value. The text has this:
Evaluation of inhibitory activity against methyl-α-D-glucopyranoside uptake of human Na^+-glucose cotransporter (SGLT1 and SGLT2)
2) Construction of Human SGLT2 Expression Vector
Human SGLT2 cDNA was amplified by PCR with a cDNA library derived from human kidney (Clontech) as a template, synthetic DNA primers and KOD+ DNA Polymerase. The amplified cDNA was inserted into pcRII-Topo vector by using a Topo TA Cloning Dual Promoter kit. E. coli competent cells (TPO10) were transformed with the plasmid vector, cultured in LB medium containing ampicillin (50 mg/L) to grow ampicillin-resistant clones. The plasmid vector containing human SGLT2 cDNA was purified from the clone in a standard manner. Human SGLT2 cDNA added restriction enzyme recognition sites (Xho I at 5′-end, Hind III at 3′-end) was amplified by PCR with the plasmid vector as a template, synthetic DNA primers containing an additional restriction enzyme recognition site and KOD+ DNA Polymerase. This amplified cDNA was digested with Xho I and Hind III, and ligated into expression vector pcDNA3.1(−) digested with Xho I and Hind III by using a Rapid DNA Ligation kit. E. coli competent cells (DH5α) were transformed with the ligated expression vector and grown in ampicillin-containing LB medium. Human SGLT2 expression vector was purified from the ampicillin-resistant clone in a standard manner.
3) Establishment of Cell Lines Stably Expressing Human SGLT1 or Human SGLT2
The human SGLT1 expression vector or the human SGLT2 expression vector was digested with the restriction enzyme Pvu I and transfected into CHO-Kl cells with FuGENE (Roche Diagonostics). After the transfection, the cells were cultured at 37° C. in the presence of 5% CO2 for about 3 weeks in DMEM medium (Gibco) containing penicillin (50 U/mL, SIGMA), streptomycin (50 mg/L, SIGMA), geneticin (200 mg/L, Nacalai Tesque, Inc., Japan) and 20% fetal bovine serum to obtain geneticin-resistant clones. Among these clones, clones stably expressing human SGLT1 or human SGLT2 were selected by the evaluating the sodium-dependent uptake activity of sugar (methyl-α-D-glucopyranoside).
4) Evaluation of Inhibitory Activity Against methyl-α-D-glucopyranoside uptake
Cell lines stably expressing human SGLT1 or human SGLT2 CHO were seeded in 96-well culture plates at a density of 30000 to 40000 cells/well and cultured for 4 to 6 days. The medium in these plates was removed and replaced by 150 μL/well pretreatment buffer (i.e., a buffer containing 140 mM choline chloride, 2 mM potassium chloride, 1 mM calcium chloride, 1 mM magnesium chloride, 10 mM 2-[4-(2-hydroxyethyl)-1-piperazinyl]ethanesulfonic acid and tris(hydroxymethyl)aminomethane, pH 7.4), and the plates were incubated at 37° C. for 20 minutes. The pretreatment buffer in the plates was removed, replaced by 50 μL/well fresh pretreatment buffer, and the plates were incubated at 37° C. for 20 minutes. Methyl-α-D-(U—^14C)glucopyranoside (6.3 mL, Amersham Pharmacia Biotech, 200 mCi/L) was added to and mixed with 100 mL buffer (i.e., a buffer containing 140 mM sodium chloride, 2 mM potassium chloride, 1 mM calcium chloride, 1 mM magnesium chloride, 1 mM methyl-α-D-glucopyranoside, 10 mM [4-(2-hydroxyethyl)-1-piperazinyl]ethanesulfonic acid and tris(hydroxymethyl)aminomethane, pH 7.4), which was used as uptake buffer. Test compounds were dissolved into uptake buffer and these test compound solutions were used for evaluating inhibitory activity. Uptake buffer without a test compound was used as a control solution. Moreover, for use in measuring baseline uptake in the absence of sodium, sodium-free solution was prepared in the same manner to contain 140 mM choline chloride instead of sodium chloride. The pretreatment buffer was removed from each well of the plates and replaced by 35 μL/well test compound solutions, control solution or sodium-free solution, and the plates were incubated at 37° C. for 45 minutes. […]

Bounds are passed on as bounds.

The IC50 is the concentration at which inhibition is half-maximal. Turning to `OC[C@H]1O[C@]2(OCc3cc(Cl)c(Cc4ccc(CC(F)F)cc4)cc32)[C@H](O)[C@@H](O)[C@@H]1O` [Example 10, (1S,3′R,4′S,5′S,6′R)-5-chloro-6-[(4-(2,2-difluoroethyl)phenyl)methyl]-3′,4′,5′,6′-tetrahydro-6′-(hydroxymethyl)-spiro[isobenzofuran-1(3H),2′-[2H]pyran]-3′,4′,5′-triol], in the assay with db/db mice, the inhibition in vivo at 0.3 mg/kg was at least 25%. The IC50 on human SGLT2 amounted to 1.2 nM.

Turning to `CC(C)c1ccc(Cc2cc3c(cc2F)CO[C@]32O[C@H](CO)[C@@H](O)[C@H](O)[C@H]2O)cc1` [Example 19, (1S,3′R,4′S,5′S,6′R)-5-fluoro-3′,4′,5′,6′-tetrahydro-6′-(hydroxymethyl)-6-[(4-isopropylphenyl)methyl]-spiro[isobenzofuran-1(3H),2′-[2H]pyran]-3′,4′,5′-triol], the inhibition in vivo at 0.3 mg/kg with db/db mice is at least 25%. The IC50 at human SGLT2 amounted to 2 nM.

`CCOc1ccc(Cc2cc3c(cc2C)CO[C@]32O[C@H](CO)[C@@H](O)[C@H](O)[C@H]2O)cc1` [Example 24, (1S,3′R,4′S,5′S,6′R)-6-[(4-ethoxyphenyl)methyl]-3′,4′,5′,6′-tetrahydro-6′-(hydroxymethyl)-5-methyl-spiro[isobenzofuran-1(3H),2′-[2H]pyran]-3′,4′,5′-triol]: the inhibition in vivo at 0.3 mg/kg with db/db mice was at least 25%. In addition, the half-inhibitory concentration (IC50) on human SGLT2 was 1.8 nM.

`OC[C@H]1O[C@]2(OCc3cc(Cl)c(Cc4ccc(Cl)cc4)cc32)[C@H](O)[C@@H](O)[C@@H]1O` [Example 6, (1S,3′R,4′S,5′S,6′R)-5-chloro-6-[(4-chlorophenyl)methyl]-3′,4′,5′,6′-tetrahydro-6′-(hydroxymethyl)-spiro[isobenzofuran-1(3H),2′-[2H]pyran]-3′,4′,5′-triol]: in the assay with db/db mice, the inhibition in vivo at 0.3 mg/kg is at least 25%. Besides, the 50% inhibitory concentration (IC50) at human SGLT2 amounted to 1.3 nM.

Take `Cc1cc2c(cc1Cc1ccc(CCF)cc1)[C@]1(OC2)O[C@H](CO)[C@@H](O)[C@H](O)[C@H]1O` [Example 22, (1S,3′R,4′S,5′S,6′R)-6-[(4-(2-fluoroethyl)phenyl)methyl]-5-methyl-3′,4′,5′,6′-tetrahydro-6′-(hydroxymethyl)-spiro[isobenzofuran-1(3H),2′-[2H]pyran]-3′,4′,5′-triol]: in the assay with db/db mice, the inhibition in vivo at 0.3 mg/kg is at least 25%. Also, the IC50 at human SGLT2 worked out at 1.1 nM.

As for `Cc1cc2c(cc1Cc1ccc(OC(F)(F)F)cc1)[C@]1(OC2)O[C@H](CO)[C@@H](O)[C@H](O)[C@H]1O` [Example 27, (1S,3′R,4′S,5′S,6′R)-6-[(4-trifluoromethoxyphenyl)methyl]-3′,4′,5′,6′-tetrahydro-6′-(hydroxymethyl)-5-methyl-spiro[isobenzofuran-1(3H),2′-[2H]pyran]-3′,4′,5′-triol], the inhibition in vivo at 0.3 mg/kg in the assay on db/db mice is at least 25%. In addition, the half-inhibitory concentration (IC50) at human SGLT2 was determined as 2.6 nM.

Take `CC(C)(C)c1ccc(Cc2cc3c(cc2Cl)CO[C@]32O[C@H](CO)[C@@H](O)[C@H](O)[C@H]2O)cc1` [Example 14, (1S,3′R,4′S,5′S,6′R)-6-[(4-tert-butylphenyl)methyl]-5-chloro-3′,4′,5′,6′-tetrahydro-6′-(hydroxymethyl)-spiro[isobenzofuran-1(3H),2′-[2H]pyran]-3′,4′,5′-triol]: the inhibition in vivo at 0.3 mg/kg in the assay with db/db mice was at least 25%. In addition, on human SGLT2, the IC50 amounted to 3.4 nM.

Regarding `Cc1cc2c(cc1Cc1ccc(C(F)(F)F)cc1)[C@]1(OC2)O[C@H](CO)[C@@H](O)[C@H](O)[C@H]1O` [Example 26, (1S,3′R,4′S,5′S,6′R)-6-[(4-trifluoromethylphenyl)methyl]-3′,4′,5′,6′-tetrahydro-6′-(hydroxymethyl)-5-methyl-spiro[isobenzofuran-1(3H),2′-[2H]pyran]-3′,4′,5′-triol], the inhibition in vivo at 0.3 mg/kg with db/db mice is at least 25%. Moreover, the IC50 at human SGLT2 turned out to be 2.8 nM.

For `OC[C@H]1O[C@]2(OCc3cc(Cl)c(Cc4cccs4)cc32)[C@H](O)[C@@H](O)[C@@H]1O` [Example 30, (1S,3′R,4′S,5′S,6′R)-5-chloro-3′,4′,5′,6′-tetrahydro-6′-(hydroxymethyl)-6-[(thiophen-2-yl)methyl]-spiro[isobenzofuran-1(3H),2′-[2H]pyran]-3′,4′,5′-triol], in the assay on db/db mice, the inhibition in vivo at 0.3 mg/kg is at least 25%. The half-maximal inhibitory concentration (IC50) on human SGLT2 worked out at 1.3 nM.

With `C#Cc1cc2c(cc1Cc1ccc(CC)cc1)[C@]1(OC2)O[C@H](CO)[C@@H](O)[C@H](O)[C@H]1O` [Example 31, (1S,3′R,4′S,5′S,6′R)-6-[(4-ethylphenyl)methyl]-5-ethynyl-3′,4′,5′,6′-tetrahydro-6′-(hydroxymethyl)-spiro[isobenzofuran-1(3H),2′-[2H]pyran]-3′,4′,5′-triol], the inhibition in vivo at 0.3 mg/kg in the assay on db/db mice is at least 25%. In addition, the half-inhibitory concentration (IC50) at human SGLT2 came out at 2.1 nM.

For the molecule `COc1ccc(Cc2cc3c(cc2C)CO[C@]32O[C@H](CO)[C@@H](O)[C@H](O)[C@H]2O)cc1` [Example 23, (1S,3′R,4′S,5′S,6′R)-3′,4′,5′,6′-tetrahydro-6′-(hydroxymethyl)-6-[(4-methoxyphenyl)methyl]-5-methyl-spiro[isobenzofuran-1(3H),2′-[2H]pyran]-3′,4′,5′-triol], the inhibition in vivo at 0.3 mg/kg in the assay with db/db mice was at least 25%. Also, the IC50 at human SGLT2 worked out at 1.5 nM.

`CCc1ccc(Cc2cc3c(cc2F)CO[C@]32O[C@H](CO)[C@@H](O)[C@H](O)[C@H]2O)cc1` [Example 16, (1S,3′R,4′S,5′S,6′R)-6-[(4-ethylphenyl)methyl]-5-fluoro-3′,4′,5′,6′-tetrahydro-6′-(hydroxymethyl)-spiro[isobenzofuran-1(3H),2′-[2H]pyran]-3′,4′,5′-triol]: the inhibition in vivo at 0.3 mg/kg in the assay on db/db mice was at least 25%. The IC50 at human SGLT2 was 1.5 nM.
